{"source": "patent US20260217701A1", "about": "“SELECTIVE BET INHIBITORS AND USES THEREOF” (Tay Therapeutics Limited, priority 2022, published 2026)", "system": "imiquimod-induced psoriasis", "assay": "Imiquimod-induced psoriasis model", "type": "in vivo, mice", "set-up": "Spleen Weight / Spleen Weight Ratio: unit not given here", "conditions": "for Mean scores of the presence of erythema on the skin of animals at the area of induction of psoriasis / Mean scores of the presence of induration on the skin of animals at the area of induction of psoriasis / Mean scores of the presence of peeling on the skin of animals at the area of induction of psoriasis: mean ± SEM", "outline": "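Psoriasis-like dermatitis induced in mice by daily dorsal imiquimod cream (Days 1–14); dosing with Compound A (5% DMSO/40% PEG-400/55% saline vehicle) began Day 8. Read-outs: summed 0–4 scores for erythema, induration and peeling daily to Day 15, plus terminal spleen ratio, behaviour and serum cytokines.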", "key": {"[1]": {"conditions": "IMI-psoriasis model, mice, 1 mg/kg, individual animals"}, "[2]": {"conditions": "IMI-psoriasis model, mice, 3 mg/kg, individual animals"}, "[3]": {"conditions": "IMI-psoriasis model, mice, 10 mg/kg, individual animals"}, "[4]": {"conditions": "IMI + 1 mg/kg, D8 (before start of treatment)"}, "[5]": {"conditions": "IMI + 3 mg/kg, D8 (before start of treatment)"}}, "note": "Values joined by “and” are separate entries in the source; they are usually repeats but may differ in a detail not shown here. Identical values can stand only once."}
{"compound": "Cn1cc(-c2ccccc2)c(-c2cn(C)c(=O)c3[nH]c(-c4cnn(C(F)(F)F)c4)cc23)cc1=O", "note": "[Compound A, 6-methyl-4-(1-methyl-2-oxo-5-phenyl-1,2-dihydropyridin-4-yl)-2-(1-(trifluoromethyl)-1H-pyrazol-4-yl)-1,6-dihydro-7H-pyrrolo[2,3-c]pyridin-7-one]", "values": [{"measurement": "Use Enrichment Mean D8-D15", "setting": "IMI-psoriasis model, mean D8-D15, 10 mg/kg, per cage (two animals)", "value": "2.86 and 3.86 and 3.50 and 3.14"}, {"measurement": "Spleen Weight", "setting": "[1]", "value": "219.42 and 202.00 and 212.50 and 233.20 and 220.14 and 227.26 and 202.76 and 213.15"}, {"measurement": "Spleen Weight Ratio", "setting": "[1]", "value": "1394.03 and 1137.39 and 1273.22 and 1367.74 and 1289.63 and 1310.61 and 1176.78 and 1298.90"}, {"measurement": "Spleen Weight", "setting": "[2]", "value": "199.90 and 205.09 and 178.46 and 185.94 and 214.46 and 180.80 and 187.63 and 151.76"}, {"measurement": "Spleen Weight Ratio", "setting": "[2]", "value": "1084.06 and 1245.23 and 967.79 and 1175.35 and 1265.25 and 1069.19 and 1163.24 and 921.43"}, {"measurement": "Spleen Weight", "setting": "[3]", "value": "156.01 and 178.03 and 139.03 and 157.80 and 191.54 and 195.58 and 151.42 and 172.86"}, {"measurement": "Spleen Weight Ratio", "setting": "[3]", "value": "939.82 and 1083.57 and 757.66 and 813.82 and 1075.46 and 1071.08 and 902.92 and 1083.08"}, {"measurement": "cytokine levels (IL-17, IL-22, IL-1β, IL-6, TNF-α, IL-23) relative to vehicle", "setting": "all tested doses", "value": "marked reduction of all cytokines assayed"}, {"measurement": "Spleen Weight Ratio", "setting": "day 15, 1, 3, 10 mg/kg", "value": "dose-dependent decrease"}, {"measurement": "Mean scores of the presence of erythema on the skin of animals at the area of induction of psoriasis", "setting": "[4]", "value": "2.0 ± 0.0"}, {"measurement": "Mean scores of the presence of induration on the skin of animals at the area of induction of psoriasis", "setting": "[4]", "value": "2.6 ± 0.2"}, {"measurement": "Mean scores of the presence of peeling on the skin of animals at the area of induction of psoriasis", "setting": "[4]", "value": "2.6 ± 0.2"}, {"measurement": "Mean scores of the presence of erythema on the skin of animals at the area of induction of psoriasis", "setting": "IMI + 1 mg/kg, D9", "value": "2.0 ± 0.3"}, {"measurement": "Mean scores of the presence of induration on the skin of animals at the area of induction of psoriasis", "setting": "IMI + 1 mg/kg, D9", "value": "2.4 ± 0.2"}, {"measurement": "Mean scores of the presence of peeling on the skin of animals at the area of induction of psoriasis", "setting": "IMI + 1 mg/kg, D9", "value": "2.6 ± 0.2"}, {"measurement": "Mean scores of the presence of erythema on the skin of animals at the area of induction of psoriasis", "setting": "IMI + 1 mg/kg, D10", "value": "1.75 ± 0.2"}, {"measurement": "Mean scores of the presence of induration on the skin of animals at the area of induction of psoriasis", "setting": "IMI + 1 mg/kg, D10", "value": "2.1 ± 0.2"}, {"measurement": "Mean scores of the presence of peeling on the skin of animals at the area of induction of psoriasis", "setting": "IMI + 1 mg/kg, D10", "value": "2.1 ± 0.1"}, {"measurement": "Mean scores of the presence of erythema on the skin of animals at the area of induction of psoriasis", "setting": "IMI + 1 mg/kg, D11", "value": "1.9 ± 0.1"}, {"measurement": "Mean scores of the presence of induration on the skin of animals at the area of induction of psoriasis", "setting": "IMI + 1 mg/kg, D11", "value": "2.0 ± 0.3"}, {"measurement": "Mean scores of the presence of peeling on the skin of animals at the area of induction of psoriasis", "setting": "IMI + 1 mg/kg, D11", "value": "1.9 ± 0.2"}, {"measurement": "Mean scores of the presence of erythema on the skin of animals at the area of induction of psoriasis", "setting": "IMI + 1 mg/kg, D12", "value": "1.5 ± 0.2"}, {"measurement": "Mean scores of the presence of induration on the skin of animals at the area of induction of psoriasis", "setting": "IMI + 1 mg/kg, D12", "value": "1.6 ± 0.2"}, {"measurement": "Mean scores of the presence of peeling on the skin of animals at the area of induction of psoriasis", "setting": "IMI + 1 mg/kg, D12", "value": "1.3 ± 0.2"}, {"measurement": "Mean scores of the presence of erythema on the skin of animals at the area of induction of psoriasis", "setting": "IMI + 1 mg/kg, D13", "value": "0.5 ± 0.2"}, {"measurement": "Mean scores of the presence of induration on the skin of animals at the area of induction of psoriasis", "setting": "IMI + 1 mg/kg, D13", "value": "1.5 ± 0.2"}, {"measurement": "Mean scores of the presence of peeling on the skin of animals at the area of induction of psoriasis", "setting": "IMI + 1 mg/kg, D13", "value": "1.1 ± 0.1"}, {"measurement": "Mean scores of the presence of erythema on the skin of animals at the area of induction of psoriasis", "setting": "IMI + 1 mg/kg, D14", "value": "0.3 ± 0.2"}, {"measurement": "Mean scores of the presence of induration on the skin of animals at the area of induction of psoriasis", "setting": "IMI + 1 mg/kg, D14", "value": "0.9 ± 0.2"}, {"measurement": "Mean scores of the presence of peeling on the skin of animals at the area of induction of psoriasis", "setting": "IMI + 1 mg/kg, D14", "value": "1.0 ± 0.0"}, {"measurement": "Mean scores of the presence of erythema on the skin of animals at the area of induction of psoriasis", "setting": "IMI + 1 mg/kg, D15", "value": "0.0 ± 0.0"}, {"measurement": "Mean scores of the presence of induration on the skin of animals at the area of induction of psoriasis", "setting": "IMI + 1 mg/kg, D15", "value": "0.5 ± 0.2"}, {"measurement": "Mean scores of the presence of peeling on the skin of animals at the area of induction of psoriasis", "setting": "IMI + 1 mg/kg, D15", "value": "0.7 ± 0.2"}, {"measurement": "Mean scores of the presence of erythema on the skin of animals at the area of induction of psoriasis", "setting": "[5]", "value": "1.9 ± 0.1"}, {"measurement": "Mean scores of the presence of induration on the skin of animals at the area of induction of psoriasis", "setting": "[5]", "value": "2.5 ± 0.2"}, {"measurement": "Mean scores of the presence of peeling on the skin of animals at the area of induction of psoriasis", "setting": "[5]", "value": "2.3 ± 0.2"}, {"measurement": "Mean scores of the presence of erythema on the skin of animals at the area of induction of psoriasis", "setting": "IMI + 3 mg/kg, D9", "value": "1.6 ± 0.2"}, {"measurement": "Mean scores of the presence of induration on the skin of animals at the area of induction of psoriasis", "setting": "IMI + 3 mg/kg, D9", "value": "2.6 ± 0.2"}, {"measurement": "Mean scores of the presence of peeling on the skin of animals at the area of induction of psoriasis", "setting": "IMI + 3 mg/kg, D9", "value": "2.5 ± 0.2"}, {"measurement": "Mean scores of the presence of erythema on the skin of animals at the area of induction of psoriasis", "setting": "IMI + 3 mg/kg, D10", "value": "1.4 ± 0.2"}, {"measurement": "Mean scores of the presence of induration on the skin of animals at the area of induction of psoriasis", "setting": "IMI + 3 mg/kg, D10", "value": "2.1 ± 0.1"}, {"measurement": "Mean scores of the presence of peeling on the skin of animals at the area of induction of psoriasis", "setting": "IMI + 3 mg/kg, D10", "value": "2.0 ± 0.2"}, {"measurement": "Mean scores of the presence of erythema on the skin of animals at the area of induction of psoriasis", "setting": "IMI + 3 mg/kg, D11", "value": "1.0 ± 0.0"}, {"measurement": "Mean scores of the presence of induration on the skin of animals at the area of induction of psoriasis", "setting": "IMI + 3 mg/kg, D11", "value": "1.4 ± 0.2"}, {"measurement": "Mean scores of the presence of peeling on the skin of animals at the area of induction of psoriasis", "setting": "IMI + 3 mg/kg, D11", "value": "1.6 ± 0.2"}, {"measurement": "Mean scores of the presence of erythema on the skin of animals at the area of induction of psoriasis", "setting": "IMI + 3 mg/kg, D12", "value": "0.8 ± 0.2"}, {"measurement": "Mean scores of the presence of induration on the skin of animals at the area of induction of psoriasis", "setting": "IMI + 3 mg/kg, D12", "value": "1.4 ± 0.2"}, {"measurement": "Mean scores of the presence of peeling on the skin of animals at the area of induction of psoriasis", "setting": "IMI + 3 mg/kg, D12", "value": "1.4 ± 0.2"}, {"measurement": "Mean scores of the presence of erythema on the skin of animals at the area of induction of psoriasis", "setting": "IMI + 3 mg/kg, D13", "value": "0.3 ± 0.2"}, {"measurement": "Mean scores of the presence of induration on the skin of animals at the area of induction of psoriasis", "setting": "IMI + 3 mg/kg, D13", "value": "0.6 ± 0.2"}, {"measurement": "Mean scores of the presence of peeling on the skin of animals at the area of induction of psoriasis", "setting": "IMI + 3 mg/kg, D13", "value": "0.9 ± 0.1"}, {"measurement": "Mean scores of the presence of erythema on the skin of animals at the area of induction of psoriasis", "setting": "IMI + 3 mg/kg, D14", "value": "0.3 ± 0.2"}, {"measurement": "Mean scores of the presence of induration on the skin of animals at the area of induction of psoriasis", "setting": "IMI + 3 mg/kg, D14", "value": "0.3 ± 0.2"}, {"measurement": "Mean scores of the presence of peeling on the skin of animals at the area of induction of psoriasis", "setting": "IMI + 3 mg/kg, D14", "value": "0.3 ± 0.2"}]}
